Source: patent US9969687B2, “Compounds useful as CCR9 modulators” (Norgine B.V., priority 2013, dated 2018)

Key:
CCR9 [1] = biological target: T1, CCR9 (Homo sapiens (Human), UniProt P51686); test: FLIPR calcium flux assay using hCCR9 over expressed cells (Chem1-hCCR9), TECK stimulation; format: cell-based; conditions: Chem1-hCCR9 overexpressing cells
Procedure: Biological Activity: FLIPR Assay Using hCCR9 Over Expressed Cells
A calcium flux assay was used to determine the ability of the compounds to interfere with the binding between CCR9 and its chemokine ligand (TECK) in Chem1-hCCR9 overexpressing cells. hCCR9 overexpressing cells were seeded (25,000 cells/well) into black Poly-D-Lysine coated clear bottom 96-well plates (BD Biosciences, Cat #356640) and incubated overnight at 37° C./5% CO2 in a humidified incubator. Media was aspirated and cells washed twice with 100 μL assay buffer (1×HBSS, 20 mM HEPES) containing 2.5 mM Probenecid. A 0.3× Fluo-4 NW calcium dye was prepared in assay buffer containing 5 mM Probenecid and stored in the dark. Each well was loaded with 100 μL of 0.3× Fluo-4 NW calcium dye and incubated at 37° C./5% CO2 for 60 minutes and then at room temperature for 30 minutes. A half-log serially diluted concentration response curve was prepared at a 3× final assay concentration for each compound (10 μM-0.1 nM final assay concentration) and 50 μL of the compound then transferred to the cells (150 μL final volume) for 60 minutes prior to stimulation (30 minutes at 37° C./5% CO2 and 30 minutes at room temperature). TECK was diluted to 4× its EC80 in assay buffer (containing 0.1% [w/v] bovine serum albumin [BSA]) and 50 μL dispensed through the fluorometric imaging plate reader (FLIPR) instrument to stimulate the cells (200 μL final volume). The increase in intracellular calcium levels was measured with the FLIPR instrument. The potency of the compound as a CCR9 antagonist was calculated as an IC50 using GraphPad Prism software (variable slope four parameter). The Ki of the compound was determined from the IC50 values using the following equation. IC50/1+(Agonist (TECK) conc. used in assay/EC50 of agonist (TECK) generated on day of experiment) Ki calculation: […]

CCR9 [2] = biological target: T1, CCR9; test: FLIPR calcium flux assay using MOLT4 cells, TECK stimulation; format: cell-based; conditions: MOLT4 cells (human T-cell line)
Procedure: Biological Activity: FLIPR Assay Using MOLT4 Cells
A calcium flux assay was used to determine the ability of the compounds to interfere with the binding between CCR9 and its chemokine ligand (TECK) in MOLT4 cells (a human T-cell line). MOLT4 cells were seeded (100,000 cells/well) in corning cell culture plates (Cat #3603) in assay buffer (1×HBSS, 20 mM HEPES) containing 2.5 mM Probenecid. The plate was centrifuged at 1200 rpm for 3 minutes and incubated at 37° C./5% CO2 for 2 hours. A 0.3× Fluo-4 NW calcium dye was prepared in assay buffer containing 5 mM Probenecid and stored in the dark. Each well was loaded with 25 μl of 0.3× Fluo-4 NW calcium dye and incubated at 37° C./5% CO2 for 60 minutes and then at room temperature for 30 minutes. A half-log serially diluted concentration response curve was prepared at a 4× concentration for each (10 μM-0.1 nM final assay concentration) and 25 μL of the compound then transferred to the cells (100 μL final volume) for 60 minutes prior to stimulation (30 minutes at 37° C./5% CO2 and 30 minutes at room temperature). […] The increased in intracellular calcium levels was measured with the FLIPR instrument. The potency of the compound as CCR9 antagonist was calculated as an IC50 using GraphPad Prism software (variable slope four parameter). The Ki of the compound was determined from the IC50 values using the following equation. IC50/1+(Agonist (TECK) conc. used in assay/EC50 of agonist (TECK) generated on day of experiment) Ki calculation: […]

T1 sequence (P51686 whole entry): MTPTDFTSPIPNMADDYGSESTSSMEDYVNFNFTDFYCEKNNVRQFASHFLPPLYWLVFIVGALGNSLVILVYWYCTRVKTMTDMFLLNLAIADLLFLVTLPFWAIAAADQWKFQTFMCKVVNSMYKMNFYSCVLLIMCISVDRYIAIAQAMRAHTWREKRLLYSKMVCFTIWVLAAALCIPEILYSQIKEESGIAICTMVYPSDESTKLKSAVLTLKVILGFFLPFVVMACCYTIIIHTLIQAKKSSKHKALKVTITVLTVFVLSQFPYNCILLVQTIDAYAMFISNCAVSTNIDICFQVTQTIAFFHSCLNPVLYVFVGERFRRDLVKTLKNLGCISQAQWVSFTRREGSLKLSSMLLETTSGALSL

CC(C)(C)c1ccc(S(=O)(=O)Nc2ccc(Cl)c3c2C(=O)N(Cc2ccc[n+]([O-])c2)C3=O)cc1 [Compound 65, 3-((4-(4-(tert-butyl)phenylsulfonamido)-7-chloro-1,3-dioxoisoindolin-2-yl)methyl)pyridine 1-oxide]
Ki (CCR9 [1]): 74 nM
Ki (CCR9 [2]): 13 nM

Cn1ccc(CN2C(=O)c3c(Cl)ccc(NS(=O)(=O)c4ccc(C(C)(C)C)cc4)c3C2=O)n1 [Compound 193]
Ki (CCR9 [1]): 21 nM
Ki (CCR9 [2]): 16 nM

CCOC(=O)c1c(N2C(=O)c3c(Cl)ccc(NS(=O)(=O)c4ccc(C(C)(C)C)cc4)c3C2=O)ccc[n+]1[O-] [Compound 290]
Ki (CCR9 [1]): 14 nM
Ki (CCR9 [2]): 7 nM

Cc1cccc(N2C(=O)c3c(Cl)ccc(NS(=O)(=O)c4ccc(C(C)(C)C)cc4)c3C2=O)[n+]1[O-] [Compound 233]
Ki (CCR9 [1]): 21 nM
Ki (CCR9 [2]): 19 nM

Cn1nnc(N2C(=O)c3c(Cl)ccc(NS(=O)(=O)c4ccc(C(C)(C)C)cc4)c3C2=O)n1 [Compound 234]
Ki (CCR9 [1]): 43 nM
Ki (CCR9 [2]): 45 nM

COc1cncc(N2C(=O)c3c(C#N)ccc(NS(=O)(=O)c4ccc(C(C)(C)C)cc4)c3C2=O)c1 [Compound 278]
Ki (CCR9 [1]): 17 nM
Ki (CCR9 [2]): 10 nM

CC(C)(C)c1ccc(S(=O)(=O)Nc2ccc(Cl)c3c2C(=O)N(c2cccnc2F)C3=O)cc1 [Compound 218]
Ki (CCR9 [1]): 26 nM
Ki (CCR9 [2]): 7 nM

CC(C)(C)c1ccc(S(=O)(=O)Nc2ccc(Cl)c3c2C(=O)N(Cc2ccncc2)C3=O)cc1 [Compound 201]
Ki (CCR9 [1]): 17 nM
Ki (CCR9 [2]): 8 nM

CC(C)(C)c1ccc(S(=O)(=O)Nc2ccc(Cl)c3c2C(=O)N(c2ccncn2)C3=O)cc1 [Compound 249]
Ki (CCR9 [1]): 60 nM
Ki (CCR9 [2]): 33 nM

CC(C)(C)c1ccc(S(=O)(=O)Nc2ccc(Cl)c3c2C(=O)N(c2cccc(C#N)n2)C3=O)cc1 [Compound 207]
Ki (CCR9 [1]): 36 nM
Ki (CCR9 [2]): 30 nM

Cc1c[n+]([O-])ccc1N1C(=O)c2c(Cl)ccc(NS(=O)(=O)c3ccc(C(C)(C)C)cc3)c2C1=O [Compound 272]
Ki (CCR9 [1]): 29 nM
Ki (CCR9 [2]): 9 nM

O=C1c2c(Cl)ccc(NS(=O)(=O)c3ccc(C(F)(F)F)cc3)c2C(=O)N1c1cn[nH]c1 [Compound 149]
Ki (CCR9 [1]): 397 nM
Ki (CCR9 [2]): 53 nM

Cn1nccc1N1C(=O)c2c(Cl)ccc(NS(=O)(=O)c3ccc(C(C)(C)C)cc3)c2C1=O [Compound 144]
Ki (CCR9 [1]): 23 nM
Ki (CCR9 [2]): 3 nM

O=C1c2c(Cl)ccc(NS(=O)(=O)c3ccc(OC(F)(F)F)cc3)c2C(=O)N1c1cccnc1 [Compound 45]
Ki (CCR9 [1]): 314 nM
Ki (CCR9 [2]): 52 nM

COc1ncccc1N1C(=O)c2c(Cl)ccc(NS(=O)(=O)c3ccc(C(C)(C)C)cc3)c2C1=O [Compound 183]
Ki (CCR9 [1]): 3 nM
Ki (CCR9 [2]): 3 nM

Cc1cccc(N2C(=O)c3c(Cl)ccc(NS(=O)(=O)c4ccc(C(C)(C)C)cc4)c3C2=O)n1 [Compound 228]
Ki (CCR9 [1]): 6 nM
Ki (CCR9 [2]): 5 nM

CCOc1cc(N2C(=O)c3c(Cl)ccc(NS(=O)(=O)c4ccc(C(C)(C)C)cc4)c3C2=O)c[n+]([O-])c1 [Compound 197]
Ki (CCR9 [1]): 40 nM
Ki (CCR9 [2]): 21 nM

COc1ccc[n+]([O-])c1N1C(=O)c2c(Cl)ccc(NS(=O)(=O)c3ccc(C(C)(C)C)cc3)c2C1=O [Compound 211]
Ki (CCR9 [1]): 61 nM
Ki (CCR9 [2]): 33 nM

Cc1ncccc1N1C(=O)c2c(Cl)ccc(NS(=O)(=O)c3ccc(C(C)(C)C)cc3)c2C1=O [Compound 175, 4-(tert-butyl)-N-(7-chloro-2-(2-methylpyridin-3-yl)-1,3-dioxoisoindolin-4-yl)benzenesulfonamide]
Ki (CCR9 [1]): 12 nM
Ki (CCR9 [2]): 3 nM

CC(C)(C)c1ccc(S(=O)(=O)Nc2ccc(Cl)c3c2C(=O)N(Cc2cc[n+]([O-])cc2)C3=O)cc1 [Compound 209]
Ki (CCR9 [1]): 77 nM
Ki (CCR9 [2]): 30 nM

Cc1cncc(N2C(=O)c3c(Cl)ccc(NS(=O)(=O)c4ccc(C(C)(C)C)cc4)c3C2=O)c1 [Compound 104, 4-(tert-butyl)-N-(7-chloro-2-(5-methylpyridin-3-yl)-1,3-dioxoisoindolin-4-yl)benzenesulfonamide]
Ki (CCR9 [1]): 239 nM
Ki (CCR9 [2]): 30 nM

CC(C)(C)c1ccc(S(=O)(=O)Nc2ccc(Cl)c3c2C(=O)N(c2ncccn2)C3=O)cc1 [Compound 250]
Ki (CCR9 [1]): 56 nM
Ki (CCR9 [2]): 23 nM

COc1cc[n+]([O-])cc1N1C(=O)c2c(Cl)ccc(NS(=O)(=O)c3ccc(C(C)(C)C)cc3)c2C1=O [Compound 189]
Ki (CCR9 [1]): 34 nM
Ki (CCR9 [2]): 8 nM

CCOC(=O)c1ncccc1N1C(=O)c2c(Cl)ccc(NS(=O)(=O)c3ccc(C(C)(C)C)cc3)c2C1=O [Compound 286, ethyl 3-(4-((4-(tert-butyl)phenyl)sulfonamido)-7-chloro-1,3-dioxoisoindolin-2-yl)picolinate]
Ki (CCR9 [1]): 14 nM
Ki (CCR9 [2]): 10 nM

CCOc1ccncc1N1C(=O)c2c(Cl)ccc(NS(=O)(=O)c3ccc(C(C)(C)C)cc3)c2C1=O [Compound 271]
Ki (CCR9 [1]): 35 nM
Ki (CCR9 [2]): 9 nM

CC(C)(C)c1ccc(S(=O)(=O)Nc2ccc(Cl)c3c2C(=O)N(c2cccc[n+]2[O-])C3=O)cc1 [Compound 274]
Ki (CCR9 [1]): 50 nM
Ki (CCR9 [2]): 34 nM

COc1ccc(N2C(=O)c3c(Cl)ccc(NS(=O)(=O)c4ccc(C(C)(C)C)cc4)c3C2=O)c(C)[n+]1[O-] [Compound 243]
Ki (CCR9 [1]): 115 nM
Ki (CCR9 [2]): 34 nM

Cn1cc(N2C(=O)c3c(Cl)ccc(NS(=O)(=O)c4ccc(C(C)(C)C)cc4)c3C2=O)ccc1=O [Compound 282]
Ki (CCR9 [1]): 23 nM
Ki (CCR9 [2]): 9 nM

Cc1cc[n+]([O-])cc1CN1C(=O)c2c(Cl)ccc(NS(=O)(=O)c3ccc(C(C)(C)C)cc3)c2C1=O [Compound 213]
Ki (CCR9 [1]): 23 nM
Ki (CCR9 [2]): 12 nM

COc1cc(CN2C(=O)c3c(Cl)ccc(NS(=O)(=O)c4ccc(C(C)(C)C)cc4)c3C2=O)c[n+]([O-])c1 [Compound 231]
Ki (CCR9 [1]): 89 nM
Ki (CCR9 [2]): 50 nM

Cc1cc(N2C(=O)c3c(Cl)ccc(NS(=O)(=O)c4ccc(C(C)(C)C)cc4)c3C2=O)cn(C)c1=O [Compound 285]
Ki (CCR9 [1]): 78 nM
Ki (CCR9 [2]): 16 nM

N#Cc1cccc(CN2C(=O)c3c(Cl)ccc(NS(=O)(=O)c4ccc(C(F)(F)F)cc4)c3C2=O)c1 [Compound 128]
Ki (CCR9 [1]): 447 nM
Ki (CCR9 [2]): 244 nM

Cc1ccc(N2C(=O)c3c(Cl)ccc(NS(=O)(=O)c4ccc(C(C)(C)C)cc4)c3C2=O)[n+]([O-])c1 [Compound 229]
Ki (CCR9 [1]): 63 nM
Ki (CCR9 [2]): 46 nM

Cc1ccnc(N2C(=O)c3c(Cl)ccc(NS(=O)(=O)c4ccc(C(C)(C)C)cc4)c3C2=O)c1 [Compound 225]
Ki (CCR9 [1]): 51 nM
Ki (CCR9 [2]): 54 nM

CC(C)(C)c1ccc(S(=O)(=O)Nc2ccc(C#N)c3c2C(=O)N(Cc2ccccn2)C3=O)cc1 [Compound 279]
Ki (CCR9 [1]): 17 nM
Ki (CCR9 [2]): 18 nM

CCc1c(OC)c[n+]([O-])cc1N1C(=O)c2c(Cl)ccc(NS(=O)(=O)c3ccc(C(C)(C)C)cc3)c2C1=O [Compound 266]
Ki (CCR9 [1]): 25 nM
Ki (CCR9 [2]): 10 nM

COc1c(N2C(=O)c3c(Cl)ccc(NS(=O)(=O)c4ccc(C(C)(C)C)cc4)c3C2=O)ccc[n+]1[O-] [Compound 194]
Ki (CCR9 [1]): 6 nM
Ki (CCR9 [2]): 4 nM

CC(C)(C)c1ccc(S(=O)(=O)Nc2ccc(Cl)c3c2C(=O)N(c2cccnn2)C3=O)cc1 [Compound 203]
Ki (CCR9 [1]): 59 nM
Ki (CCR9 [2]): 38 nM

Cc1cnc(N2C(=O)c3c(Cl)ccc(NS(=O)(=O)c4ccc(C(C)(C)C)cc4)c3C2=O)s1 [Compound 217]
Ki (CCR9 [1]): 39 nM
Ki (CCR9 [2]): 35 nM

COC(=O)c1cc(N2C(=O)c3c(Cl)ccc(NS(=O)(=O)c4ccc(C(C)(C)C)cc4)c3C2=O)nn1C [Compound 292]
Ki (CCR9 [1]): 16 nM
Ki (CCR9 [2]): 11 nM

Cn1cnc(N2C(=O)c3c(Cl)ccc(NS(=O)(=O)c4ccc(C(C)(C)C)cc4)c3C2=O)c1 [Compound 153, 4-(tert-butyl)-N-(7-chloro-2-(1-methyl-1H-imidazol-4-yl)-1,3-dioxoisoindolin-4-yl)benzenesulfonamide]
Ki (CCR9 [1]): 43 nM
Ki (CCR9 [2]): 7 nM
